Results taken from patent US8889375B2, “Hypoglycemic effect enhancer” (Biofermin Pharmaceutical Co., Ltd., priority 2009, dated 2014).

Tests used:
[1] = tested on: KK-A^y mice; assay: Fasting blood glucose level after 2-week feeding of the test diet (Example 2); format: in vivo, mouse; conditions: 2-week feeding of test diet (10% BBG9-1 dried cells and/or 0.0003% voglibose in CE-2), fasted overnight, FIG. 1
Source text: (§1) As the voglibose, BASEN (registered trade name) tablets 0.2 (made by Takeda Pharmaceutical Company Ltd.) were crushed and used. Female KK-A^y mice (strain name KK-A^y/TaJcl) at 8 weeks old were purchased (from CLEA Japan, Inc.) and preliminarily reared in separate cages for 2 weeks. A KK-A^y mouse is a diabetic model mouse. In the preliminary rearing, free access to a commercial powder diet (trade name: CE-2, made by CLEA Japan, Inc.) and tap water was provided. On the first day of the experiment, the oral glucose tolerance test (OGTT) was conducted. That is, to the mice kept fasted from the previous day, a glucose solution ((2 g in 5 mL)/kg) was orally administered. […] Accu-Check Aviva, made by Roche Diagnostics). The area under the blood concentration-time curve (AUC) was calculated, and based on the AUC, the mice were divided into the following 4 groups […] mice/group). The grouped mice were given free access to the test diet. Group A: a group fed with CE-2 containing 10% dextrin. […] Group C: a group fed with CE-2 containing 10% dextrin and 0.0003% voglibose. […] Each group was fed with the test diet for 2 weeks as above, fasted overnight, and then measured for fasting glucose level with use of Accu-Check Aviva. […] The significant difference of each group from Group A was evaluated using Durmett's test, and the significant difference between 2 groups was evaluated using t-test.

[2] = tested on: KK-A^y mice; assay: Oral glucose tolerance test (OGTT) after 6-week feeding of the test diet (Example 2); format: in vivo, mouse
Source text: as §1

[3] = tested on: GK rats; conditions: 9-week dietary administration, 0.005%: 4.1 mg/kg·day; cited from earlier work

OCC(CO)N[C@H]1C[C@](O)(CO)[C@@H](O)[C@H](O)[C@H]1O [voglibose, 1L(1S)-(1(OH),2,4,5/1,3)-5-[[2-hydroxy-1-(hydroxymethyl)-ethyl]amino]-1-C-(hydroxymethyl)-1,2,3,4-cyclohexane tetrol]
fasting blood glucose level [1]: neither BBG9-1 alone nor voglibose alone decreased the fasting blood glucose level | glucose tolerance ([2]; 6-week dietary administration, voglibose 0.0003%: 0.6 mg/kg·day): did not improve the glucose tolerance | blood glucose level in the OGTT after glucose loading ([2]; 6-week feeding (10% BBG9-1 dried cells and/or 0.0003% voglibose in CE-2), glucose 2 g/kg oral, FIG. 2): neither BBG9-1 alone nor voglibose alone inhibited the increase in the blood glucose level | glucose tolerance [3]: improved the glucose tolerance
